Laboratory results reported in ChEMBL document CHEMBL5096181, “Isoxazole derivatives as anticancer agent: A review on synthetic strategies, mechanism of action and SAR studies” (Eur J Med Chem, 2021).
≈ marks a conversion by molar mass, not a printed value.

Tests used:
Huh-7 = experiment: Cytotoxicity against human Huh-7 cells assessed as cell growth inhibition and measured after 72 hrs by SRB assay; type: functional, cell-based; settings: Huh-7, 72 h
Mahlavu = experiment: Cytotoxicity against human Mahlavu cells assessed as cell growth inhibition and measured after 72 hrs by SRB assay; type: functional, cell-based
MCF7 [1] = experiment: Cytotoxicity against human MCF7 cells assessed as cell growth inhibition and measured after 72 hrs by SRB assay; type: functional, cell-based; settings: MCF7, 72 h
MCF7 [2] = experiment: Cytotoxicity against human MCF7 cells assessed as cell growth inhibition by MTT assay; type: functional, cell-based
MCF7 [3] = experiment: Anticancer activity against human MCF7 cells assessed as inhibition of cell proliferation measured after 4 hrs by MTT assay; type: functional, cell-based; settings: MCF7, 4 h
CWR22R = experiment: Antiproliferative activity against human 22Rv1 cells assessed as cell growth inhibition by MTT assay; type: functional, cell-based
[4] = molecular target: T1, Tyrosine-protein phosphatase non-receptor type 1 (Homo sapiens, UniProt P18031); experiment: Inhibition of PTP1B (unknown origin) by SpectraMax 340 microplate reader Analysis
T1 sequence (P18031 whole entry): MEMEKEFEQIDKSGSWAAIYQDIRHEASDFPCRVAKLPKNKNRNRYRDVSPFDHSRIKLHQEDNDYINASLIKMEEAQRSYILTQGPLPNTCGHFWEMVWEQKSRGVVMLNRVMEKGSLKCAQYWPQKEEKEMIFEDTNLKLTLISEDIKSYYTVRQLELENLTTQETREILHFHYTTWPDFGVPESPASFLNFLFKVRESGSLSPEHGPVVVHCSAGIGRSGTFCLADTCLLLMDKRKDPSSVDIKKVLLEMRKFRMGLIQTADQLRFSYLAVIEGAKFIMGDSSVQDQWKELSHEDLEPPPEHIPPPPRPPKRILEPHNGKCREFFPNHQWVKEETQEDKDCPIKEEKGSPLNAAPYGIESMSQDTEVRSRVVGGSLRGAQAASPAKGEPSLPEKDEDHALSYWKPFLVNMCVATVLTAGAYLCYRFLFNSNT

[5] = molecular target: T2, Tyrosine-protein phosphatase non-receptor type 2 (Homo sapiens, UniProt P17706); experiment: Inhibition of TCPTP (unknown origin) by SpectraMax 340 microplate reader Analysis
T2 sequence (P17706 whole entry): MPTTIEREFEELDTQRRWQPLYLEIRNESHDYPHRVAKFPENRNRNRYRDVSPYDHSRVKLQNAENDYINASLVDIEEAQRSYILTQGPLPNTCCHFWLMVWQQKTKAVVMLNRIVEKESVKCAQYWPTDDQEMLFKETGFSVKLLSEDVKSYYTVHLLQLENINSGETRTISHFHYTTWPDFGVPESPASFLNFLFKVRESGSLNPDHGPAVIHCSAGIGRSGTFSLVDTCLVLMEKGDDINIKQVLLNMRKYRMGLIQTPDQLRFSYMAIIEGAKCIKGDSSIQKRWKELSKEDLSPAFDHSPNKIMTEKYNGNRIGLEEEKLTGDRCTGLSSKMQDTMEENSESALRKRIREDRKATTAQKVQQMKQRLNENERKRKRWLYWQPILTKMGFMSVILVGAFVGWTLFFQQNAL

MCF7 [6] = experiment: Antiproliferative activity against human MCF7 cells assessed as inhibition of cell growth measured after 48 hrs by SRB assay; type: functional, cell-based; settings: MCF7, 48 h
DU-145 = experiment: Cytotoxicity against human DU-145 cells assessed as inhibition of cell growth by MTT assay; type: functional, cell-based
Aromatase = molecular target: T3, Aromatase (Homo sapiens, UniProt P11511); experiment: Inhibition of human recombinant aromatase expressed in baculovirus insect cell using 7-methoxy-trifluoromethyl coumarin (MFC) as substrate preincubated for 10 mins followed by substrate addition and measured for 30 mins by fluorescence based assay
T3 sequence (P11511 whole entry): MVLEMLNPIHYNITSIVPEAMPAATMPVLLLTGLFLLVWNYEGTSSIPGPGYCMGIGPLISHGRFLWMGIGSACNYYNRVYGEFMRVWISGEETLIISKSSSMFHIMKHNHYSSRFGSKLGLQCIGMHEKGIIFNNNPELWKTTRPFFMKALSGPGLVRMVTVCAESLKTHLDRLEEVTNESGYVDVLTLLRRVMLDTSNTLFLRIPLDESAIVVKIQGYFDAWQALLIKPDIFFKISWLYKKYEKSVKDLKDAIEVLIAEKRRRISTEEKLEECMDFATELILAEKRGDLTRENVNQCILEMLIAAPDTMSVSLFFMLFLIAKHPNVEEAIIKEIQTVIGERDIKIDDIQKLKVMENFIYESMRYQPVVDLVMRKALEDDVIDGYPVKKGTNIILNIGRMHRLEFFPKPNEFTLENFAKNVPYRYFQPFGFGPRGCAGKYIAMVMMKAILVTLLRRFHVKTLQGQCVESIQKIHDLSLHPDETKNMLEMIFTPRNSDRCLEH

## FC(F)(F)c1ccc(CN2CCN(c3cc(-c4ccccc4)on3)CC2)cc1
Huh-7
  IC50: 17.1 µM
Mahlavu
  IC50: 14.1 µM
MCF7 [1]
  IC50: 19.1 µM

## COc1ccc(C2CC(c3c(-c4ccc([N+](=O)[O-])cc4)noc3C)=NN2C(N)=S)cc1 (centres undefined)
MCF7 [2]
  IC50: 4.48 µg/mL

## FC(F)(F)c1ccc(CN2CCN(c3cc(-c4ccc(Cl)cc4)on3)CC2)cc1
Huh-7
  IC50: 9.6 µM
Mahlavu
  IC50: 26.8 µM
MCF7 [1]
  IC50: 14 µM

## O=S(=O)(Nc1ccc(-c2cnoc2)cc1)c1ccc(Cl)cc1
MCF7 [1]
  IC50: 5.7 µM

## Nc1nn(Cc2cc(-c3ccc4ccccc4n3)no2)c2nc(-c3cccs3)cc(C(F)(F)F)c12
MCF7 [2]
  IC50: 31.6 µM

## COc1ccc(-c2cnoc2-c2ccc(OC)c3ccccc23)cc1
MCF7 [3]
  IC50: 2.03 µM

## Cc1noc(C)c1COc1ccc(-c2cc(N3CCN(Cc4ccc(C(F)(F)F)cc4)CC3)no2)cc1
Huh-7
  IC50: 1.2 µM
Mahlavu
  IC50: 2.2 µM
MCF7 [1]
  IC50: 1.6 µM

## COc1cc(N(C(=O)CSc2nc3ccccc3s2)c2ccncc2)cc(OC)c1OC
CWR22R
  IC50: 5.09 µM

## Oc1ccc(-c2cc(N3CCN(Cc4ccc(C(F)(F)F)cc4)CC3)no2)cc1
Huh-7
  IC50: 3.8 µM
Mahlavu
  IC50: 7.5 µM
MCF7 [1]
  IC50: 8.3 µM

## COc1ccc(-c2oncc2-c2ccc(Cl)cc2)c2ccccc12
MCF7 [3]
  IC50: 5.26 µM

## FC(F)(F)c1ccc(CN2CCN(c3cc(-c4ccc(C(F)(F)F)cc4)on3)CC2)cc1
Huh-7
  IC50: 19.9 µM
Mahlavu
  IC50: > 40 µM
MCF7 [1]
  IC50: 9.5 µM

## O=C(O)c1cccc(/C=C/c2ccc(Oc3cnoc3-c3ccc(Cl)c(Cl)c3)cc2)c1
[4]
  IC50: 0.91 µM
[5]
  IC50: 3.78 µM

## Cc1onc(-c2ccc([N+](=O)[O-])cc2)c1C1=NN(C(N)=S)C(c2cccs2)C1 (centres undefined)
MCF7 [2]
  IC50: 2.25 µg/mL

## COc1ccc(-c2cc(-c3c[nH]c4ccccc34)on2)cc1
MCF7 [6]
  IC50: 2.55 µM

## Cc1onc(-c2ccc([N+](=O)[O-])cc2)c1C1=NN(C(N)=S)C(c2ccc(Cl)cc2)C1 (centres undefined)
MCF7 [2]
  IC50: 5.42 µg/mL

## CC(=O)O[C@@]12CO[C@@H]1C[C@H](O)[C@@]1(C)C(=O)[C@H](O)C3=C(C)[C@@H](OC(=O)[C@H](O)[C@@H](NC(=O)OC(C)(C)C)c4ccccc4)C[C@@](O)([C@@H](OC(=O)c4ccccc4)[C@H]21)C3(C)C [DOCETAXEL ANHYDROUS]
DU-145
  IC50: 5 µg/mL (≈ 6.19 µM)

## C#Cc1cccc(Nc2ncnc3cc(OCCOC)c(OCCOC)cc23)c1 [ERLOTINIB]
MCF7 [1]
  IC50: 4.1 µM

## O=c1[nH]cc(F)c(=O)[nH]1 [FLUOROURACIL]
Aromatase
  IC50: 0.63 µM
CWR22R
  IC50: 18.3 µM
MCF7 [2]
  IC50: 1.7 µM

## C[C@H](CCC(=O)O)[C@H]1CC[C@H]2[C@@H]3CC[C@@H]4C[C@H](O)CC[C@]4(C)[C@H]3CC[C@]12C [LITHOCHOLIC ACID]
[4]
  IC50: 2.71 µM
[5]
  IC50: 6.12 µM

## CC(=O)O[C@H]1C(=O)[C@@]2(C)[C@H]([C@H](OC(=O)c3ccccc3)[C@]3(O)C[C@H](OC(=O)[C@H](O)[C@@H](NC(=O)c4ccccc4)c4ccccc4)C(C)=C1C3(C)C)[C@]1(OC(C)=O)CO[C@@H]1C[C@@H]2O [PACLITAXEL]
MCF7 [2]
  IC50: 0.015 µg/mL
